From PubChem BioAssay (NCI) come the findings set out here.

Among the test systems are UACC-62 melanoma; UO-31 renal; OVCAR-4 ovarian; 786-0 renal; RXF 393 renal; UACC-257 melanoma; M14 melanoma; HT29 colon; HCT-15 colon; SK-MEL-28 melanoma; MALME-3M melanoma; BT-549 breast; SF-268 CNS; T-47D breast; OVCAR-3 ovarian; LOX IMVI melanoma; KM12 colon; HCT-116 colon; SNB-75 CNS.
Common to all, as to experiment: inhibition of tumour cell growth, NCI panel, 48 h

Values joined by “and” are separate entries in the source; they are usually repeats but may differ in a detail not shown here. Equal values may be shown once.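 Protocol summary: plate cells (96-well), add compound at 5 concentrations, incubate 48 h, interpolate endpoints linearly. The concentration for 50% growth inhibition is given as GI50. Definition used: TGI = concentration required for complete inhibition of growth.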 Where only a bound is given, the exact number is not on record here.

`COc1ccc(C(=O)c2sc(Nc3ccccc3)nc2N)cc1`: the TGI in the test with UACC-62 melanoma, in the test on UO-31 renal, with OVCAR-4 ovarian, in the test on 786-0 renal, in the test on RXF 393 renal and in the test with UACC-257 melanoma was > 100 µM each time. For the same molecule, the TGI in the test with M14 melanoma, with HT29 colon, with HCT-15 colon, in the test with SK-MEL-28 melanoma, with MALME-3M melanoma and in the test with BT-549 breast was > 100 µM in each case. Further, the TGI with SF-268 CNS, in the test with T-47D breast, in the test on OVCAR-3 ovarian and in the test on LOX IMVI melanoma was > 100 µM in each case.

Regarding `CCN1CN(c2ccccc2)C2(CCN(CCCSc3ccc(F)cc3)CC2)C1=O`, the TGI in the test on UACC-62 melanoma was 30.2 µM; with UO-31 renal it was 18.1 µM; in the test on 786-0 renal, 26.6 µM; in the test with RXF 393 renal, 25.7 µM; in the test with UACC-257 melanoma, 17.1 µM; in the test on M14 melanoma, 21.6 µM. Also, the TGI in the test on HT29 colon amounted to 13.3 µM; with HCT-15 colon, 24.9 µM; with SK-MEL-28 melanoma, 31 µM; with KM12 colon, 28.9 µM; in the test with MALME-3M melanoma, 36.1 µM; in the test with BT-549 breast, 21.4 µM. Also, the TGI with SF-268 CNS was determined as 28.3 µM; with T-47D breast, 17.2 µM; in the test with HCT-116 colon it was 14.9 µM; in the test with OVCAR-3 ovarian, 27.2 µM; in the test with SNB-75 CNS, 30.1 µM; in the test with LOX IMVI melanoma, 31.5 µM.

For the molecule `OCC1OC(NCCNCCNC2OC(CO)C(O)C(O)C2O)C(O)C(O)C1O` (stereo not given), the TGI in the test on UACC-62 melanoma, in the test with UO-31 renal, in the test on 786-0 renal, in the test with RXF 393 renal, in the test on UACC-257 melanoma and in the test with M14 melanoma was > 100 µM in each case. Further, the TGI was > 100 µM with HT29 colon; > 100 µM in the test on HCT-15 colon; > 100 µM in the test on SK-MEL-28 melanoma; 22.5 µM and > 100 µM with KM12 colon; > 100 µM in the test on MALME-3M melanoma; > 100 µM with BT-549 breast. Besides, the TGI in the test on SF-268 CNS, in the test on T-47D breast, in the test on HCT-116 colon, in the test with OVCAR-3 ovarian, in the test with SNB-75 CNS and in the test with LOX IMVI melanoma was > 100 µM in each case. Also, the GI50 in the test on KM12 colon is 10.4 µM and 43.3 µM and > 100 µM.

For the molecule `O=C1C=CC(=O)c2c(NCC3CC3)ccc(NCC3CC3)c21`, the TGI in the test on UACC-62 melanoma is 65.3 µM; in the test on UO-31 renal, > 100 µM; with 786-0 renal it was > 100 µM; in the test with UACC-257 melanoma it was 61.8 µM; in the test with M14 melanoma, 56.8 µM; with HT29 colon, 88.4 µM. In addition, the TGI was > 100 µM in the test with HCT-15 colon; 99.1 µM in the test with SK-MEL-28 melanoma; > 100 µM with KM12 colon; 49.2 µM in the test with MALME-3M melanoma; > 100 µM with BT-549 breast; 65.6 µM with T-47D breast. Besides, the results for the TGI in the test on HCT-116 colon, with OVCAR-3 ovarian and with LOX IMVI melanoma were > 100 µM, 63.4 µM and 43 µM, respectively.

Regarding `CC(=O)O[C@@H]1[C@H]2[C@@H](OC(=O)c3ccccc3)[C@@H](C)C[C@]2(O)[C@H](OC(C)=O)[C@@]2(C)[C@@H]3CC(C)(C)C(=O)[C@]3(OC(C)=O)C[C@@]12C`, the TGI with UACC-62 melanoma, in the test on UO-31 renal, in the test with OVCAR-4 ovarian, in the test on 786-0 renal, with RXF 393 renal and in the test on UACC-257 melanoma was > 25 µM in each case. The TGI in the test with M14 melanoma, in the test on HCT-15 colon, in the test with KM12 colon, in the test on BT-549 breast, in the test with SF-268 CNS and in the test with T-47D breast was > 25 µM each time. Further, the TGI in the test with HCT-116 colon, with OVCAR-3 ovarian, in the test with SNB-75 CNS and in the test with LOX IMVI melanoma was > 25 µM each time.

With `CCOC(=O)c1sc2nc(SC)nc3c2c1NCN3c1ccc2c(c1)OCCCO2`, the TGI is > 100 µM in the test on UACC-62 melanoma; > 100 µM in the test with UO-31 renal; > 100 µM in the test with OVCAR-4 ovarian; 26.8 µM in the test with 786-0 renal; 35.6 µM with RXF 393 renal; > 100 µM in the test on UACC-257 melanoma. Also, the TGI in the test on M14 melanoma, in the test with HCT-15 colon, with SK-MEL-28 melanoma, in the test with KM12 colon, in the test with MALME-3M melanoma and in the test with BT-549 breast was > 100 µM each time. Further, the TGI in the test with SF-268 CNS was > 100 µM; with T-47D breast, > 100 µM; in the test on HCT-116 colon, > 100 µM; in the test on OVCAR-3 ovarian, 93.9 µM; with LOX IMVI melanoma, > 100 µM.

Consider `Cc1nc(-n2[nH]c(C)c(CCO)c2=O)[nH]c(=O)c1CCO`, for which the TGI in the test with UACC-62 melanoma, in the test with UO-31 renal, with OVCAR-4 ovarian, in the test on 786-0 renal, in the test on RXF 393 renal and with UACC-257 melanoma was > 100 µM each time. Besides, the TGI in the test with M14 melanoma, in the test with HT29 colon, in the test on HCT-15 colon, in the test with SK-MEL-28 melanoma, with KM12 colon and in the test on BT-549 breast was > 100 µM each time. Further, the TGI with SF-268 CNS, with T-47D breast, with HCT-116 colon, with OVCAR-3 ovarian, in the test on SNB-75 CNS and with LOX IMVI melanoma was > 100 µM throughout.

Consider `N#CCC(=O)c1cc(OCc2cc(OCc3ccc(Br)cc3)cc(OCc3ccc(Br)cc3)c2)cc(OCc2cc(OCc3ccc(Br)cc3)cc(OCc3ccc(Br)cc3)c2)c1`, for which the TGI with UACC-62 melanoma, in the test on UO-31 renal, in the test on OVCAR-4 ovarian, in the test on 786-0 renal, with UACC-257 melanoma and in the test on M14 melanoma was > 100 µM throughout. Further, the TGI in the test on HCT-15 colon, in the test with SK-MEL-28 melanoma, in the test on KM12 colon, in the test with MALME-3M melanoma, in the test with BT-549 breast and in the test with SF-268 CNS was > 100 µM each time. For the same molecule, the TGI in the test with T-47D breast, with HCT-116 colon, with OVCAR-3 ovarian and in the test on SNB-75 CNS was > 100 µM in each case.
